Measured values published in patent US9682985B2, “(Indazol-4-yl) hexahydropyrrolopyrrolones and methods of use” (AbbVie Inc., priority 2015, dated 2017).
pIC50: −log10 of the molar value.

Assays:
recombinant human Nav1.7 = biological target: T1, recombinant human Nav1.7 (Homo sapiens, UniProt Q15858); assay: FRET-based membrane potential assay, Nav1.7; assay type: cell-based; conditions: HEK293 cells expressing recombinant human Nav1.7; veratridine + scorpion venom depolarization
T1 construct: expressed in transfected cells; host or cells: HEK293
T1 sequence (Q15858 whole entry): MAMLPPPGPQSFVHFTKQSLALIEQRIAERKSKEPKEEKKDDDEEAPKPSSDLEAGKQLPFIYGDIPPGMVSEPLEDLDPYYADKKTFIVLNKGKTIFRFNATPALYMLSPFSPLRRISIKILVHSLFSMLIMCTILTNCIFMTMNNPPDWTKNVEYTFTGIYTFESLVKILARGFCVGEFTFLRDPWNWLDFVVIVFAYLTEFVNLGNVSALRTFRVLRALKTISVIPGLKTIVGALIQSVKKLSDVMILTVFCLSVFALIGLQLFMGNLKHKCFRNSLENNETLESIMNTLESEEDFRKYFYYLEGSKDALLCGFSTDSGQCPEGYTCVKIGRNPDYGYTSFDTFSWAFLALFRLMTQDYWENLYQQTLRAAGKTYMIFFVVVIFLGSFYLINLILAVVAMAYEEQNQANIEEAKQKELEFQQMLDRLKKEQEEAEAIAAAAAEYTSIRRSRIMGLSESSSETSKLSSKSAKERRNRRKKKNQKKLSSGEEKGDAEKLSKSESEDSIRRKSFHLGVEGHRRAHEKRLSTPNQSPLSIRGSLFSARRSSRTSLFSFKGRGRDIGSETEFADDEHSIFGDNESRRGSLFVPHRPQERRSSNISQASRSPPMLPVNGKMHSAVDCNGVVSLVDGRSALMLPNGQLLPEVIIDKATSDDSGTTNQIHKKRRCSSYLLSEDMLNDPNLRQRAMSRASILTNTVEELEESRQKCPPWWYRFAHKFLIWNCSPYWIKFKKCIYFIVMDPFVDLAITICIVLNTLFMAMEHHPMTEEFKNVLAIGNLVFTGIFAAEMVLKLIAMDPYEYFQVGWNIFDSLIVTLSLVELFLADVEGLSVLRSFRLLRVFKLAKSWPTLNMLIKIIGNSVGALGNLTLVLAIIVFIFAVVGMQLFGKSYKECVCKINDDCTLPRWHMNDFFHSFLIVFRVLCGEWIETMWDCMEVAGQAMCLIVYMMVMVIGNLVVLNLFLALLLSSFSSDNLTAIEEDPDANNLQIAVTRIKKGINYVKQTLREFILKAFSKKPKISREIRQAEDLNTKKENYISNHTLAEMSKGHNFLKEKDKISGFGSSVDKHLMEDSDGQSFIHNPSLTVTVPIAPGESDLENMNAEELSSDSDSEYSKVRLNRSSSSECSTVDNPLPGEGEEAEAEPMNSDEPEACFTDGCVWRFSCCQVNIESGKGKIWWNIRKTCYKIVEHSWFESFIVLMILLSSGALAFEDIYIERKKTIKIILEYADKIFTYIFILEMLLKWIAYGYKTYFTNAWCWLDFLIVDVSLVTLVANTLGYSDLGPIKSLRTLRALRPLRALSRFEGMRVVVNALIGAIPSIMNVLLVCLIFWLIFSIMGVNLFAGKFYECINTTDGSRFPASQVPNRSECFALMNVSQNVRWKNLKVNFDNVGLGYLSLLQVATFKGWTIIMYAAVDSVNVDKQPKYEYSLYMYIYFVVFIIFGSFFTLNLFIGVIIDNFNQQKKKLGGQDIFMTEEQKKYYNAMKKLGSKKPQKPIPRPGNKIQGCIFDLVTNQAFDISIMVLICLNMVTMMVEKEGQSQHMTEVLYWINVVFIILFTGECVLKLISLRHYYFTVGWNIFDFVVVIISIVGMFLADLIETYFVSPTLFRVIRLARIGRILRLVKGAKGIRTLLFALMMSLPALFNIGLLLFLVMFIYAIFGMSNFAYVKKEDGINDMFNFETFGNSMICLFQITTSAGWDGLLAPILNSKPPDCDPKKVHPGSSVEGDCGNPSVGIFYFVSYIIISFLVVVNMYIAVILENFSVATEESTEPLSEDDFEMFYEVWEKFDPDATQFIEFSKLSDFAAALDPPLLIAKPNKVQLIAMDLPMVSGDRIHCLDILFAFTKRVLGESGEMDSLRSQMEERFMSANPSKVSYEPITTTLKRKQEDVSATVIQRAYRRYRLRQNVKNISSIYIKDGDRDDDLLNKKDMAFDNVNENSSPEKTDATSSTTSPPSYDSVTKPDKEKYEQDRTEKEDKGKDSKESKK

hERG channel (Kv11.1) = biological target: T2, hERG channel (Kv11.1) (Homo sapiens, UniProt Q12809); assay: hERG QPatch screening protocol (hERG current block); assay type: cell-based; conditions: HEK-293 cells stably transfected with hERG; tail current; room temperature
T2 construct: W. January (Wisconsin Alumni Research Foundation); host or cells: HEK-293
T2 sequence (Q12809 whole entry): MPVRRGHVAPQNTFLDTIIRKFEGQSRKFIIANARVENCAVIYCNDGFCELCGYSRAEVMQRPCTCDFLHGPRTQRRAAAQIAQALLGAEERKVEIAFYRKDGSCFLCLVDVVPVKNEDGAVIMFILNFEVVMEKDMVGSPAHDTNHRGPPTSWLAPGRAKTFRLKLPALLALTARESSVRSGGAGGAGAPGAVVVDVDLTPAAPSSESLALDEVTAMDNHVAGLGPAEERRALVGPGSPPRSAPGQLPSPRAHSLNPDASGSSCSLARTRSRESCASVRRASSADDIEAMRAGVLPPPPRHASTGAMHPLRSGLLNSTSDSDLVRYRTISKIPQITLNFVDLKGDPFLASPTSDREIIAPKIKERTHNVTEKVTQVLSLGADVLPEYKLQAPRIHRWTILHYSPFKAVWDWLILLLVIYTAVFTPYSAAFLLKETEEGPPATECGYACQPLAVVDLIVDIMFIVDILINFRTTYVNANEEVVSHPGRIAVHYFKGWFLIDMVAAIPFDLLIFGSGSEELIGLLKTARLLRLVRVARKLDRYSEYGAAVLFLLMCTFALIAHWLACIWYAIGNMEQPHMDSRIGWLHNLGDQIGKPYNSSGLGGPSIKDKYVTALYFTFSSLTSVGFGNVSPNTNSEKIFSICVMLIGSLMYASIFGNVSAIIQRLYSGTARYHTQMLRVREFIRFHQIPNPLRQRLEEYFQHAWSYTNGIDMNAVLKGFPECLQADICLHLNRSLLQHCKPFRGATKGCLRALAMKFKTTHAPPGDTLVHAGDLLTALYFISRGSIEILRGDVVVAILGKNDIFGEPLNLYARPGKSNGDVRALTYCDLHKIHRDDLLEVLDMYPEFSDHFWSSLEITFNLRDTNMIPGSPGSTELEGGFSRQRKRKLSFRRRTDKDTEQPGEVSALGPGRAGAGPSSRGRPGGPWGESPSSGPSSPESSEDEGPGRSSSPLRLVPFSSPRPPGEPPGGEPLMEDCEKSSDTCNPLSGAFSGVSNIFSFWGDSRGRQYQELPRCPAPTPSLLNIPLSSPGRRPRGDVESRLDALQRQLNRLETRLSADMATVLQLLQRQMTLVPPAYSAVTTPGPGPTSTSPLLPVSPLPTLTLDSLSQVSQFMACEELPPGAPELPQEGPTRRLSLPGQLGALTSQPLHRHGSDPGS
Experimental: hERG QPatch Screening Protocol
Solutions and Compound Plates:
The bath solution contained (in mM): 140 NaCl, 5 KCl, 1 MgCl2, 2 CaCl2, 5 glucose, 20 HEPES, pH=7.4. The internal solution contained (in mM): 125 K-aspartate, 20 KCl, 10 EGTA, 5 MgATP, 1 MgCl2, 5 HEPES, pH=7.3.
Compound plates were prepared with an acoustic liquid handler (Echo® 550, Labcyte), using 384-well source plates and 96-well destination plates. Compounds were delivered to the destination plates as 300 nL spots in half-log increments (1, 3, 10 and 30 mM), dissolved in dimethyl sulfoxide. Plates were solvated with bath solution (300 μL) to final concentrations (1, 3, 10 and 30 μM; 0.1% dimethyl sulfoxide) and added to the QPatch workstation.
Cells and Cell Preparation:
Human embryonic kidney (HEK-293) cells, stably transfected with the hERG channel, were obtained from Dr. C. W. January (Wisconsin Alumni Research Foundation). Cells were initially maintained at 37° C. (5% CO2 atmosphere) in MEM supplemented media. Cells were cryo-preserved in 10% dimethyl sulfoxide, 90% fetal bovine serum at 10 M cells/mL. For electrophysiological studies, cells were thawed, resuspended in media at 1.0-1.5 M cells/mL and placed on the QPatch workstation.
QPatch Electrophysiology Workstation and Experimental Protocol:
Currents were recorded using QPatch HT (Sophion), an automated planar patch-clamp system. The QPatch uses forty-eight amplifiers and a 48-chamber QPlate positioned directly on top of the headstage. To obtain high resistant seals, cells are added to each chamber and allowed to settle for 10 seconds. Negative pressure is then applied to promote cell delivery to the patch chip openings on the chamber bottom. After formation of GΩ seals, negative pressure ramps are applied to obtain intracellular access. Access resistance was initially optimized by additional pressure ramps to assure the intracellular access was adequate for voltage clamp experiments (targeted access resistance <10 MΩ). Whole-cell compensation and series resistance compensation were used at 60% (both predicted and corrected). Experiments using QPatch were conducted at room temperature.
A single application of each concentration was applied to cells. During a five-minute wash-in period, a four-second depolarizing pulse to +20 mV, followed by a five-second repolarizing pulse to −50 mV was applied once every 15 seconds from a holding potential of −80 mV. Cells were exposed to four ascending concentrations of drug in half-log intervals.
Evaluation of hERG Current Block:
hERG tail current was measured as the difference in amplitude between a […] and the end of a five-second test pulse to −50 mV, preceded by a four-second pulse to +20 mV. The hERG IC50 values for compounds were determined from tail current analysis. The IC50 was calculated with a logistic fitting routine using the following equation: y=[(A1−A2)/(1+(x/IC50))^p]A2, where A1=initial×value, A2=final×value and p=power.

| SMILES | pIC50 (recombinant human Nav1.7) | pIC50 (hERG channel (Kv11.1)) |
| --- | --- | --- |
| CC(C)(O)C(=O)N1CC[C@@H]2CN(c3cccc4c3cnn4-c3ccccc3F)C(=O)[C@@H]21 (relative stereo) [Example 4, rel-(3aR,6aR)-5-[1-(2-fluorophenyl)-1H-indazol-4-yl]-1-(2-hydroxy-2-methylpropanoyl)hexahydropyrrolo[3,4-b]pyrrol-6(1H)-one] | 5.71 | < 4.52 |
| O=C1[C@H]2[C@H](CCN2C(=O)C2(O)CC2)CN1c1cccc2c1cnn2-c1ccccc1F (relative stereo) [Example 5, rel-(3aR,6aR)-5-[1-(2-fluorophenyl)-1H-indazol-4-yl]-1-[(1-hydroxycyclopropyl)carbonyl]hexahydropyrrolo[3,4-b]pyrrol-6(1H)-one] | 5.77 | < 4.52 |
| O=C1[C@H]2CN(C(=O)n3ccnc3)C[C@H]2CN1c1cccc2c1cnn2-c1ccccc1F (relative stereo) [Example 12, rel-(3aR,6aR)-2-[1-(2-fluorophenyl)-1H-indazol-4-yl]-5-(1H-imidazol-1-ylcarbonyl)hexahydropyrrolo[3,4-c]pyrrol-1(2H)-one] | 5.51 | 4.86 |
| O=C(NCc1cnco1)N1C[C@H]2CN(c3cccc4c3cnn4-c3ccccc3F)C(=O)[C@H]2C1 (relative stereo) [Example 13, rel-(3aR,6aR)-5-[1-(2-fluorophenyl)-1H-indazol-4-yl]-N-(1,3-oxazol-5-ylmethyl)-4-oxohexahydropyrrolo[3,4-c]pyrrole-2(1H)-carboxamide] | 4.96 |  |
| CN(C)C(=O)N1C[C@H]2CN(c3cccc4c3cnn4-c3ccccc3F)C(=O)[C@H]2C1 (relative stereo) [Example 15, rel-(3aR,6aR)-5-[1-(2-fluorophenyl)-1H-indazol-4-yl]-N,N-dimethyl-4-oxohexahydropyrrolo[3,4-c]pyrrole-2(1H)-carboxamide] | 5.12 |  |
| CC(=O)N1C[C@@H]2CN(c3cccc4c3cnn4-c3ccccc3F)C(=O)[C@H]2C1 (relative stereo) [Example 17, rel-(3aR,6aR)-5-acetyl-2-[1-(2-fluorophenyl)-1H-indazol-4-yl]hexahydropyrrolo[3,4-c]pyrrol-1(2H)-one] | 5.05 |  |
| CC(C)C(=O)N1C[C@@H]2CN(c3cccc4c3cnn4-c3ccccc3F)C(=O)[C@@H]2C1 [Example 20, (3aR,6aS)-2-[1-(2-fluorophenyl)-1H-indazol-4-yl]-5-isobutyrylhexahydropyrrolo[3,4-c]pyrrol-1(2H)-one] | 5.35 |  |
| CC(C)CS(=O)(=O)N1C[C@@H]2CN(c3cccc4c3cnn4-c3ccccc3F)C(=O)[C@@H]2C1 [Example 21, (3aS,6aS)-2-[1-(2-fluorophenyl)-1H-indazol-4-yl]-5-(isobutylsulfonyl)hexahydropyrrolo[3,4-c]pyrrol-1(2H)-one] | 6.04 | 4.85 |
| CS(=O)(=O)N1C[C@@H]2CN(c3cccc4c3cnn4-c3ccccc3F)C(=O)[C@@H]2C1 [Example 22, (3aS,6aS)-2-[1-(2-fluorophenyl)-1H-indazol-4-yl]-5-(methylsulfonyl)hexahydropyrrolo[3,4-c]pyrrol-1(2H)-one] | 5.17 |  |
| CCS(=O)(=O)N1C[C@@H]2CN(c3cccc4c3cnn4-c3ccccc3F)C(=O)[C@@H]2C1 [Example 23, (3aS,6aS)-5-(ethylsulfonyl)-2-[1-(2-fluorophenyl)-1H-indazol-4-yl]hexahydropyrrolo[3,4-c]pyrrol-1(2H)-one] | 5.53 | < 4.52 |
| O=C(Cc1coc2ccccc12)N1CC2CN(c3cccc4c3cnn4-c3ccccc3F)C(=O)C2C1 [Example 25, (3aR,6aS)-5-(1-benzofuran-3-ylacetyl)-2-[1-(2-fluorophenyl)-1H-indazol-4-yl]hexahydropyrrolo[3,4-c]pyrrol-1(2H)-one] | 5.89 | 5.37 |
| O=C1[C@@H]2CN(S(=O)(=O)CCC(F)(F)F)C[C@@H]2CN1c1cccc2c1cnn2-c1ccccc1F [Example 26, (3aS,6aS)-2-[1-(2-fluorophenyl)-1H-indazol-4-yl]-5-[(3,3,3-trifluoropropyl)sulfonyl]hexahydropyrrolo[3,4-c]pyrrol-1(2H)-one] | 5.53 | < 4.52 |
| O=C1[C@@H]2CN(S(=O)(=O)c3cccnc3)C[C@@H]2CN1c1cccc2c1cnn2-c1ccccc1F [Example 27, (3aS,6aS)-2-[1-(2-fluorophenyl)-1H-indazol-4-yl]-5-(pyridin-3-ylsulfonyl)hexahydropyrrolo[3,4-c]pyrrol-1(2H)-one] | 5.44 |  |
| O=C1[C@@H]2CN(S(=O)(=O)C3CC3)C[C@@H]2CN1c1cccc2c1cnn2-c1ccccc1F [Example 28, (3aS,6aS)-5-(cyclopropylsulfonyl)-2-[1-(2-fluorophenyl)-1H-indazol-4-yl]hexahydropyrrolo[3,4-c]pyrrol-1(2H)-one] | 5.42 |  |
| CC(C)(C)OC(=O)N1CCC(S(=O)(=O)N2CC3CN(c4cccc5c4cnn5-c4ccccc4F)C(=O)C3C2)CC1 [Example 30, tert-butyl 4-{[(3aS,6aS)-5-[1-(2-fluorophenyl)-1H-indazol-4-yl]-4-oxohexahydropyrrolo[3,4c]-pyrrol-2(1H)-yl]sulfonyl}piperidine-1-carboxylate] | 5.44 |  |
| Cc1noc(C)c1CC(=O)N1C[C@@H]2CN(c3cccc4c3cnn4-c3ccccc3F)C(=O)[C@@H]2C1 [Example 33, (3aR,6aS)-5-[(3,5-dimethyl-1,2-oxazol-4-yl)acetyl]-2-[1-(2-fluorophenyl)-1H-indazol-4-yl]hexahydropyrrolo[3,4-c]pyrrol-1(2H)-one] | 4.87 |  |
| C[C@H](O)CC(=O)N1C[C@@H]2CN(c3cccc4c3cnn4-c3ccccc3F)C(=O)[C@@H]2C1 [Example 36, (3aR,6aS)-2-[1-(2-fluorophenyl)-1H-indazol-4-yl]-5-[(3S)-3-hydroxybutanoyl]hexahydropyrrolo[3,4-c]pyrrol-1(2H)-one] | 4.94 |  |
| C[C@@H](O)CC(=O)N1C[C@H]2CN(c3cccc4c3cnn4-c3ccccc3F)C(=O)[C@H]2C1 [Example 38, (3aS,6aR)-2-[1-(2-fluorophenyl)-1H-indazol-4-yl]-5-[(3R)-3-hydroxybutanoyl]hexahydropyrrolo[3,4-c]pyrrol-1(2H)-one] | 5.19 |  |
| C[C@@H](O)CC(=O)N1C[C@@H]2CN(c3cccc4c3cnn4-c3ccccc3F)C(=O)[C@@H]2C1 [Example 39, (3aR,6aS)-2-[1-(2-fluorophenyl)-1H-indazol-4-yl]-5-[(3R)-3-hydroxybutanoyl]hexahydropyrrolo[3,4-c]pyrrol-1(2H)-one] | 4.83 |  |
| O=C(C1CC1(F)F)N1C[C@@H]2CN(c3cccc4c3cnn4-c3ccccc3F)C(=O)[C@@H]2C1 (stereo partly drawn) [Example 40, (3aR,6aS)-5-[(2,2-difluorocyclopropyl)carbonyl]-2-[1-(2-fluorophenyl)-1H-indazol-4-yl]hexahydropyrrolo[3,4-c]pyrrol-1(2H)-one] | 4.98 |  |
| CC(C)(O)C(=O)N1C[C@H]2CN(c3cccc4c3cnn4-c3ccccc3F)C(=O)[C@H]2C1 [Example 41, (3aS,6aR)-2-[1-(2-fluorophenyl)-1H-indazol-4-yl]-5-(2-hydroxy-2-methylpropanoyl)hexahydropyrrolo[3,4-c]pyrrol-1(2H)-one] | 4.88 |  |
| O=C1[C@H]2CN(C(=O)C3(O)CC3)C[C@H]2CN1c1cccc2c1cnn2-c1ccccc1F [Example 42, (3aS,6aR)-2-[1-(2-fluorophenyl)-1H-indazol-4-yl]-5-[(1-hydroxycyclopropyl)carbonyl]hexahydropyrrolo[3,4-c]pyrrol-1(2H)-one] | 5.05 |  |
| CC(C)(O)C(=O)N1CC[C@@H]2CN(c3cccc4c3cnn4-c3ccccc3F)C(=O)[C@@H]21 [Example 47, (3aR,6aR)-5-[1-(2-fluorophenyl)-1H-indazol-4-yl]-1-(2-hydroxy-2-methylpropanoyl)hexahydropyrrolo[3,4-b]pyrrol-6(1H)-one] | 5.51 |  |
| O=C1[C@H]2[C@H](CCN2C(=O)C2(O)CC2)CN1c1cccc2c1cnn2-c1ccccc1F [Example 48, (3aR,6aR)-5-[1-(2-fluorophenyl)-1H-indazol-4-yl]-1-[(1-hydroxycyclopropyl)carbonyl]hexahydropyrrolo[3,4-b]pyrrol-6(1H)-one] | 6.23 |  |
